Read-outs that look alike come from different tables or passages of the source.
Tests used:
[1] = target: T1, prolyl endopeptidase (Rattus norvegicus, UniProt O70196); test: Prolyl endopeptidase-inhibitory activity; format: biochemical; settings: for inhibition at 0.1 µM: read-out: inhibition rate, prolyl endopeptidase
T1 construct: prolyl endopeptidase extracted from rat brain; from tissue; host or cells: rat brain
Procedure: Prolyl endopeptidase-inhibitory activity
A mixture of a 0.1M potassium sodium phosphate buffer (pH 7.0) (2675 μl), a solution of the compounds of the present invention in a 0.1M potassium sodium phosphate buffer (pH 7.0) (100 μl) and a solution of prolyl endopeptidase extracted from rat brain in a 25 mM sodium phosphate buffer (100 μl) [123 unit/1, pH 6.8, containing 1 mM dithiothreitol and 0.5 mM EDTA, prepared by the method described in J. Neurochem., 35, 527 (1980)]was preincubated at 30° C. for 30 minutes. Thereto was added a 0.2 mM solution of 7-(N-succinyl-glycyl-prolyl)-4-methylcoumarinamide (Peptide Institute, INC.) in a 0.1M potassium sodium phosphate buffer (pH 7.0) (125 μl), and the mixture was incubated at 30° C. for 1 hour. The reaction mixture was immersed in ice (0° C.) to terminate the reaction, and the fluorescence (a1) was determined ten minutes later (excitation at 370 nm and emission at 440 nm). Concurrently, there were conducted the experiment wherein, in the above system, the prolyl endopeptidase solution was substituted for a 25 mM sodium phosphate buffer (pH 6.8, containing 1 mM dithiothreitol and 0.5 mM EDTA) and the experiment wherein the solution of the compounds of the present invention was substituted for a 0.1M potassium sodium phosphate buffer (pH 7.0). Each fluorescence (a2 and a3) was determined respectively [See Tanpakushitsu Kakusan Koso, 29, 127 (1984)]. The prolyl endopeptidase-inhibition rate was calculated by the following formula, and IC50, a concentration of a compound producing 50% inhibition, was estimated by semilogarithmic graph paper. [formula] […]

[2] = target: T2, trypsin (Bos taurus, UniProt P00760); test: Determination of trypsin-inhibitory activity; format: biochemical, bovine; settings: 0.1 μM; read-out: inhibition rate, trypsin
T2 construct: purchased Sigma; host or cells: bovine pancreas
T2 sequence (P00760 24-246): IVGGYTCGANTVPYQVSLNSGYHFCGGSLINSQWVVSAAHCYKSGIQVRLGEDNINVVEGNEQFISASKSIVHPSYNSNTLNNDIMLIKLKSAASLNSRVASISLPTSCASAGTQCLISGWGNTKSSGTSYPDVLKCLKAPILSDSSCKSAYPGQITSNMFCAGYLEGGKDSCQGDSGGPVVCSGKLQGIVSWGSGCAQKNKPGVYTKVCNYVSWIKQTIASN
Procedure: (§1) The methods for the measurement of inhibitory activities against various proteases and the method for calculating the inhibition rate are as follows.
Determination of trypsin-inhibitory activity
In the present invention, a 50 mM Tris-HCl buffer (pH 8.0) was employed as a buffer for measurement.
To a mixture of the above-mentioned buffer (850 μl), a solution of the compounds of the present invention in the same buffer (50 μl) and a 0.02 μM solution of trypsin (derived from bovine pancreas, Sigma) in the same buffer (50 μl) was added a 200 μM solution of 7-(prolyl-phenylaranyl-arginyl)-4-methylcoumarinamide (Peptide Institute, Inc.) in the same buffer (50 μl),and the mixture was incubated at 30° C. for 1 hour. The reaction mixture was immersed in ice (0° C.) to terminate the reaction, and the fluorescence (b1) was determined 1 hour later (excitation at 370 nm and emission at 440 nm). Concurrently, there were conducted the experiment wherein, in the system above, the trypsin solution was substituted for a buffer alone, and the experiment wherein the solution of the compounds of the present invention was substituted for a buffer above. Each fluorescence (b2 and b3) was determined respectively.
(§2) Using the fluorescence x1, x2 and x3 measured in the abovementioned manner, the inhibitory rate against various proteases was calculated by the following formula where x stands for b, c, d, e or f: [formula]

[3] = target: T3, chymotrypsin (Bos taurus, UniProt P00766); test: Determination of chymotrypsin-inhibitory activity; format: biochemical, bovine; settings: 0.1 μM; read-out: inhibition rate, chymotrypsin
T3 construct: purchased Sigma; host or cells: bovine pancreas
Procedure: as §1
Determination of chymotrypsin-inhibitory activity
Similarly, by following the procedure mentioned above, but employing a 50 mM Tris-HCl buffer (pH 8.0) as a buffer for measurement, a 0.2 μM solution of chymotrypsin (derived from bovine pancreas, Sigma) in the same buffer as an enzyme solution and a […] solution of 7-(N-succinyl-leucyl-leucyl-valyl-tyrosyl)-4-methylcoumarinamide (Peptide Institute, Inc.) in the same buffer as a substrate solution, each fluorescence (c1, c2 and c3) was determined, respectively.
as §2

[4] = tested on: leucine aminopeptidase; test: Determination of leucine aminopeptidase-inhibitory activity; format: biochemical, swine; set-up: unit not given here; settings: 0.1 μM
Procedure: as §1
Determination of leucine aminopeptidase-inhibitory activity
Similarly, by following the procedure mentioned above, but employing a 50 mM Tris-HCl buffer (pH 8.0) as a buffer for measurement, a […] solution of leucine aminopeptidase (derived from swine kidney, Sigma) in the same buffer as an enzyme solution and a 200 μM solution of 7-leucyl-4-methyl-coumarinamide (Peptide Institute, Inc.) in the same buffer as a substrate solution, each fluorescence (d1, d2 and d3) was determined, respectively.
as §2

[5] = target: T4, elastase (Sus scrofa, UniProt P00772); test: Determination of elastase-inhibitory activity; format: biochemical, swine; settings: 0.1 μM; read-out: inhibition rate, elastase
T4 construct: purchased Sigma; host or cells: swine pancreas
Procedure: as §1
Determination of elastase-inhibitory activity
Similarly, by following the procedure mentioned above, but employing a 1 mM Tris-HCl buffer (pH 8.5) as a buffer for measurement, a 0.2 μM solution of elastase (derived from swine pancreas, Sigma) in the same buffer as an enzyme solution and a 200 μM solution of 7-(N-succinyl-aranyl-prolyl-aranyl)-4-methylcoumarinamide (Peptide Institute, Inc.) in the same buffer as a substrate solution, each fluorescence (e1, e2 and e3) was determined, respectively.
as §2

[6] = target: T5, cathepsin B (Bos taurus, UniProt P07688); test: Determination of cathepsin B-inhibitory activity; format: biochemical, bovine; settings: 0.1 μM; read-out: inhibition rate, cathepsin B
T5 construct: purchased Sigma; host or cells: bovine spleen
Procedure: as §1
Determination of cathepsin B-inhibitory activity
Similarly, by following the procedure mentioned above, but employing a 100 mM sodium phosphate buffer (pH 6.0; containing 1.33 mM EDTA Na2) as a buffer for measurement, a 0.02 μM solution of cathepsin B (derived from bovine spleen, Sigma) in the same buffer as an enzyme solution and a 200 μM solution of 7-(N-benzyloxycarbonyl-phenylaranyl-arginyl)-4-methylcoumarinamide (Peptide Institute, Inc.) in the same buffer as a substrate solution, each fluorescence (f1, f2 and f3) was determined, respectively.
as §2

[7] = prolyl endopeptidase extracted from rat brain, pH 7.0, 30° C., read-out: IC50

T1 sequence (O70196 whole entry): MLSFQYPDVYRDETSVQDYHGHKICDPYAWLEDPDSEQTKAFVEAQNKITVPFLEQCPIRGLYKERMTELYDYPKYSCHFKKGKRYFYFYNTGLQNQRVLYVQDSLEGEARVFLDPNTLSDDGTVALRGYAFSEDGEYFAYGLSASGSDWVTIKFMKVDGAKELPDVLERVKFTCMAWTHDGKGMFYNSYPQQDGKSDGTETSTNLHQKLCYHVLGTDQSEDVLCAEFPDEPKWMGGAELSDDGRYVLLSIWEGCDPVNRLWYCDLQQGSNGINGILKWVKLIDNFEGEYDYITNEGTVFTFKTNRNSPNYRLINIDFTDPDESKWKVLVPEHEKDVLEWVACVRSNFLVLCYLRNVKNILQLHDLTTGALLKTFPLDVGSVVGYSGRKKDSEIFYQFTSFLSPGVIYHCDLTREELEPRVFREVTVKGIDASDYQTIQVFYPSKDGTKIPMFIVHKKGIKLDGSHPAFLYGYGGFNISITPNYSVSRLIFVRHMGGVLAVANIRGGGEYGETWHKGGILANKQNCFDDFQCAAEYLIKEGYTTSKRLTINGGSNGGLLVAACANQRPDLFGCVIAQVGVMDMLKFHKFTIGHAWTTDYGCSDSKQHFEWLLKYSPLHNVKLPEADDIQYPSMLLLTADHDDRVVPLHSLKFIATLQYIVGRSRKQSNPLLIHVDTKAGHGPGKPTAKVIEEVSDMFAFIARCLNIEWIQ
T4 sequence (P00772 27-266): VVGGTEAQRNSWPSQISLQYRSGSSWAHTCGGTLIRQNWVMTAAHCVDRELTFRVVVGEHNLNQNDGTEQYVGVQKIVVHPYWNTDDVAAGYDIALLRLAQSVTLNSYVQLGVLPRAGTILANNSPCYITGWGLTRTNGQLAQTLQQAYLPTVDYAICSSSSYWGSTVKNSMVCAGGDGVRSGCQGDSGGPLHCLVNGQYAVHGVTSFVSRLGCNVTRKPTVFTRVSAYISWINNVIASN

SMILES	inhibition at 0.1 µM [1]	IC50 [1, 7]	inhibition at 0.1 µM [2]	inhibition at 0.1 µM [3]	inhibition rate, leucine aminopeptidase [4]	inhibition at 0.1 µM [5]	inhibition at 0.1 µM [6]	IC50 [1]
O=C(CSc1ccccc1)[C@@H]1CCCN1C(=O)[C@@H]1CCCN1C(=O)OCc1ccccc1 [Compound 1, (2S)-1-(N-Benzyloxycarbonyl-L-prolyl)-2-[(Phenylthio)acetyl]-pyrrolidine]	90%	0.3 nM	0%	20%	0	0%	0%	–
O=C(C[S+]([O-])c1ccccc1)[C@@H]1CCCN1C(=O)[C@@H]1CCCN1C(=O)OCc1ccccc1 (stereo partly drawn) [Compound 2, (2S)-1-(N-Benzyloxycarbonyl-L-prolyl)-2-[(phenylsulfinyl)-acetyl]pyrrolidine]	100%	1.2 nM	0%	0%	0	0%	0%	–
O=C(CS(=O)(=O)c1ccccc1)[C@@H]1CCCN1C(=O)[C@@H]1CCCN1C(=O)OCc1ccccc1 [Compound 3, (2S)-1-(N-Benzyloxycarbonyl-L-prolyl)-2-[(phenylsulfonyl)-acetyl]pyrrolidine]	91%	12 nM	0%	0%	0	0%	0%	–
O=C(COc1ccccc1)[C@@H]1CCCN1C(=O)[C@@H]1CCCN1C(=O)OCc1ccccc1 [Compound 4, (2S)-1-(N-Benzyloxycarbonyl-L-prolyl)-2-(phenoxyacetyl)-pyrrolidine]	98%	0.3 nM	0%	0%	0	0%	0%	–
O=C(C[S+]([O-])c1ccccc1)[C@@H]1CCCN1C(=O)[C@@H]1CCCN1C(=O)CCCc1ccccc1 (stereo partly drawn) [Compound 5, (2S)-1-[N-(4-Phenylbutyryl)-L-prolyl]-2-[(phenylsulfinyl)-acetyl]pyrrolidine]	98%	0.3 nM	0%	0%	0	0%	0%	–
COc1ccc([S+]([O-])CC(=O)[C@@H]2CCCN2C(=O)[C@@H]2CCCN2C(=O)OCc2ccccc2)cc1 (stereo partly drawn) [Compound 6, (2S)-1-(N-Benzyloxycarbonyl-L-prolyl)-2-[(4-methoxyphenylsulfinyl)acetyl]pyrrolidine]	98%	0.65 nM	0%	0%	0	0%	20%	–
O=C(C[S+]([O-])c1ccc([N+](=O)[O-])cc1)[C@@H]1CCCN1C(=O)[C@@H]1CCCN1C(=O)OCc1ccccc1 (stereo partly drawn) [Compound 7, (2S)-1-(N-Benzyloxycarbonyl-L-prolyl)-2-[(4-nitrophenylsulfinyl)acetyl]pyrrolidine]	97%	1 nM	0%	0%	0	0%	20%	–
CC(C)[S+]([O-])CC(=O)[C@@H]1CCCN1C(=O)[C@@H]1CCCN1C(=O)OCc1ccccc1 (stereo partly drawn) [Compound 8, (2S)-1-(N-Benzyloxycarbonyl-L-prolyl)-2-[(isopropylsulfinyl)-acetyl]pyrrolidine]	92%	3 nM	0%	0%	0	0%	0%	–
O=C(C[S@+]([O-])c1ccccc1)[C@@H]1CCCN1C(=O)[C@@H]1CCCN1C(=O)OCc1ccccc1 [Compound 9, (2S)-1-(N-Benzyloxycarbonyl-L-prolyl)-2-{[(S)-phenylsulfinyl]-acetyl}pyrrolidine]	98%	0.2 nM	0%	0%	0	0%	0%	–
O=C(C[S@@+]([O-])c1ccccc1)[C@@H]1CCCN1C(=O)[C@@H]1CCCN1C(=O)OCc1ccccc1 [Compound 10, (2S)-1-(N-Benzyloxycarbonyl-L-prolyl)-2-{[(R)-phenylsulfinyl]acetyl}pyrrolidine]	97%	80 nM	0%	0%	0	0%	0%	–
COc1ccc([S@@+]([O-])CC(=O)[C@@H]2CCCN2C(=O)[C@@H]2CCCN2C(=O)OCc2ccccc2)cc1 [Compound 11, (2S)-1-(N-Benzyloxycarbonyl-L-prolyl)-2-{[(S)-4-methoxy-phenylsulfinyl]acetyl}pyrrolidine]	90%	1.5 nM	0%	0%	0	0%	0%	–
O=C(COc1ccc2c(c1)OCO2)[C@@H]1CCCN1C(=O)[C@@H]1CCCN1C(=O)NCc1ccccc1 [Compound 33, (2S)-1-[N-(Benzylaminocarbonyl)-L-prolyl]-2-{[(3,4-methylenedioxy)phenoxy]acetyl} pyrrolidine]	96%	–	0%	0%	–	0%	0%	1 nM
